Structures can show the parent of a compound that is named as a salt. Where two headings read alike, the source gives them in different places.
How the values were obtained:
[1] = tested on: Glutamate receptor ionotropic NMDA 1 non-selective, GRIN1 (r)
[2] = tested on: Potassium Voltage-Gated Channel Kv non-selective, KCNQ1 (r); assay: IPP KCNQ1 binding (antagonist radioligand); parameters: species or system rat
[3] = tested on: 63 targets with known safety liabilities; assay: In vitro pharmacological profiling (IPP) panel, screening at 10 or 100 µM and dose response, minimum IC50/AC50; type: biochemical; conditions: read-out: ipp_lowest_ac50_systemic PoD
HepG2 cells [4] = assay: High-throughput transcriptomics (HTTr, TempO-Seq), HepG2, 24 h; type: cell-based, human; conditions: HepG2; for pod_httr_bifrost PoD: HTTr BIFROST PoD; for podl_path_minbmd PoD: HTTr minimum pathway BMD(L)
Protocol: (§1) HepG2, HepaRG, and MCF7 cells were treated with each compound for 24 h across a dose range of 7 concentrations and lysed using TempO-Seq lysis buffer (BioSpyder Technologies, proprietary kit, see [Middleton et al. 2022] for method details). Sequencing was performed using TempO-Seq (BioClavis) version 2 of the human whole transcriptome panel and analyzed as described previously in Middleton et al.

[5] = tested on: Gamma-aminobutyric acid receptor subunit alpha-1 BZD site, GABRA1A (r); type: binding, rat; conditions: control diazepam
Tubulin (r) = assay: IPP Tubulin binding; parameters: species or system rat
[6] = target: T1, Estrogen receptor, ER1 (h) (Homo sapiens, UniProt P03372); assay: IPP ER1 coactivator recruitment (agonist); type: biochemical; conditions: estriol
T1 construct: purchased Eurofins Cerep (SafetyScreen44-based IPP panel)
T1 sequence (P03372 1-595): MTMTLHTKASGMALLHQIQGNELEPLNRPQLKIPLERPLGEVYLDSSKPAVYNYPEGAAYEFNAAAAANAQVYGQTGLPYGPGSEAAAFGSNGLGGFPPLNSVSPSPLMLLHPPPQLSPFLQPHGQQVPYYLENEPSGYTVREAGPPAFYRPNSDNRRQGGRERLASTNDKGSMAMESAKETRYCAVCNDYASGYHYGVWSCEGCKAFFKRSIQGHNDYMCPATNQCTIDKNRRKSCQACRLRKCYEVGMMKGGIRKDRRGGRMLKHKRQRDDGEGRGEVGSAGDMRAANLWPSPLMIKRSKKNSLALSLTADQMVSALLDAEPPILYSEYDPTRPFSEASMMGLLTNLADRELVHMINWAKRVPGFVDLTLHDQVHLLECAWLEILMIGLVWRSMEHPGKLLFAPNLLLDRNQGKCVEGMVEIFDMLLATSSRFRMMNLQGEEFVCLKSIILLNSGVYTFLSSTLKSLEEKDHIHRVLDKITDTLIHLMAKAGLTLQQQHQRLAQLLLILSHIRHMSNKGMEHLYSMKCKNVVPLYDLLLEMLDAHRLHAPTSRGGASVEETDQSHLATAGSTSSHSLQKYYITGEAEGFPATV

[7] = Assignment of risk classifications to benchmark chemical-exposure scenarios; conditions: Dermal; 15%; Sun lotion; Exp1; from table S1
[8] = target: Potassium voltage-gated channel subfamily H member 2 hERG, KCNH2 (h) (Homo sapiens, UniProt Q12809)
Sequence of Potassium voltage-gated channel subfamily H member 2 hERG, KCNH2 (h) (Q12809 whole entry): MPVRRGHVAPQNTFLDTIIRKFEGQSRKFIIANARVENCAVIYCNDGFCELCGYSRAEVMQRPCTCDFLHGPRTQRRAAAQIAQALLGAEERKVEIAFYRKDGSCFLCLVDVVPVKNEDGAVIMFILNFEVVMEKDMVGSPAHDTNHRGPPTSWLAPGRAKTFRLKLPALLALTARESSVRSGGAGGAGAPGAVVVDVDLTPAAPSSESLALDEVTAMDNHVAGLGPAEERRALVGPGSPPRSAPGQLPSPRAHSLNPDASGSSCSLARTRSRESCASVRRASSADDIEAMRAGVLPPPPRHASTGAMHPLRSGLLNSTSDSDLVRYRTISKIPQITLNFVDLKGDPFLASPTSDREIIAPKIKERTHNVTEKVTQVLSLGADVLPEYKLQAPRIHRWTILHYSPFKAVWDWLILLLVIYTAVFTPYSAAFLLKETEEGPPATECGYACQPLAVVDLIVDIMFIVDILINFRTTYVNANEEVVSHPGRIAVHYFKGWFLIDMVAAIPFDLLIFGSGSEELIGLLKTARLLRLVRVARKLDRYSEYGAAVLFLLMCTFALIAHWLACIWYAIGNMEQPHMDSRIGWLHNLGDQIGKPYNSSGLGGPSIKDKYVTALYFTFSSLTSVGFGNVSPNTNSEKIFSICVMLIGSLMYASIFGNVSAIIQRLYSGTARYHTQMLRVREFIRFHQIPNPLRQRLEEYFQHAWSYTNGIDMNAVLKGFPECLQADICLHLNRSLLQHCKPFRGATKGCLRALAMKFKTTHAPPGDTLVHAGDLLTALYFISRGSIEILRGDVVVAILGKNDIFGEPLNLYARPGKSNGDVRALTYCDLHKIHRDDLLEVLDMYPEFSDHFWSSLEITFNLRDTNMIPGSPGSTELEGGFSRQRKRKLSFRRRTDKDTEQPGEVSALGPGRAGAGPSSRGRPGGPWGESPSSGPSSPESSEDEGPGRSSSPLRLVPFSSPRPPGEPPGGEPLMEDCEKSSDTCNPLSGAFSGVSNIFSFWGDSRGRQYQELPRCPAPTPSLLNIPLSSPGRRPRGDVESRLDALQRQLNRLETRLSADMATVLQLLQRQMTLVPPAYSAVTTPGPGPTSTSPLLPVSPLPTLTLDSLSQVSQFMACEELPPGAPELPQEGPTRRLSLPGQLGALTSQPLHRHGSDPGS

HepaRG cells = assay: High-throughput transcriptomics (HTTr, TempO-Seq), HepaRG, 24 h; type: cell-based, human; conditions: HepaRG; for pod_httr_bifrost PoD: HTTr BIFROST PoD; for podl_path_minbmd PoD: HTTr minimum pathway BMD(L)
Protocol: as §1

MCF7 cells = assay: High-throughput transcriptomics (HTTr, TempO-Seq), MCF7, 24 h; type: cell-based, human; conditions: MCF-7; for pod_httr_bifrost PoD: HTTr BIFROST PoD; for podl_path_minbmd PoD: HTTr minimum pathway BMD(L)
Protocol: as §1

[9] = tested on: Thyroid hormone receptor alpha, THRA (h); assay: IPP THRA coactivator recruitment (agonist); type: biochemical, human; conditions: agonist, T3
[10] = target: T2, Adenosine receptor A2a, ADORA2A (h) (Homo sapiens, UniProt P29274); assay: IPP ADORA2A binding (agonist radioligand); conditions: control NECA
T2 construct: purchased Eurofins Cerep (SafetyScreen44-based IPP panel)
T2 sequence (P29274 whole entry): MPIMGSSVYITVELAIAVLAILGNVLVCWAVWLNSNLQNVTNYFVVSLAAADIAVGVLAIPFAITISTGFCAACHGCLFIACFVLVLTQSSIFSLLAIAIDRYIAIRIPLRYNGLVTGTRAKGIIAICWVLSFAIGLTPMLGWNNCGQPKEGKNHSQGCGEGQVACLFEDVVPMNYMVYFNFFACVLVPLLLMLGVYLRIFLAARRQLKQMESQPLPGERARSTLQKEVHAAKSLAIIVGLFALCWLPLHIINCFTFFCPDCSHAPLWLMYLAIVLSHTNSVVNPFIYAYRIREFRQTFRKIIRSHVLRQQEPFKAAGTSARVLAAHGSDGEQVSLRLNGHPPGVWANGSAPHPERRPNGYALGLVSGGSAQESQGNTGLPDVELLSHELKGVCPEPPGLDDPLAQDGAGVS

[11] = tested on: Sodium channel protein type 5 subunit alpha (site 2), SCN5A (r); type: binding, rat
[12] = cited from earlier work
HepG2 cells [13] = assay: Cell stress panel (CSP), 24 h, 8 concentrations, BIFROST global PoD; type: cell-based; conditions: HepG2; cell stress panel PoD
Protocol: Compounds were tested using the previously developed cell stress panel ([Hatherell et al. 2020]) and the expanded biomarker panel outlined in Middleton et al. HepG2 cells were treated with all compounds for 24 h across 8 concentrations prior to biomarker analysis. The same plate layout and number of replicates (3 biological and 2 technical) were used as previously for each assay within the panel.

[14] = target: T1, Estrogen receptor, ER1 (h); assay: IPP ER1 coactivator recruitment (antagonist); type: biochemical; conditions: estriol
[15] = target: Voltage-dependent L-type Ca2+ channel (dihydropyridine site), CACNA1C (r) (Rattus norvegicus, UniProt P22002); type: binding
Sequence of Voltage-dependent L-type Ca2+ channel (dihydropyridine site), CACNA1C (r) (P22002 whole entry): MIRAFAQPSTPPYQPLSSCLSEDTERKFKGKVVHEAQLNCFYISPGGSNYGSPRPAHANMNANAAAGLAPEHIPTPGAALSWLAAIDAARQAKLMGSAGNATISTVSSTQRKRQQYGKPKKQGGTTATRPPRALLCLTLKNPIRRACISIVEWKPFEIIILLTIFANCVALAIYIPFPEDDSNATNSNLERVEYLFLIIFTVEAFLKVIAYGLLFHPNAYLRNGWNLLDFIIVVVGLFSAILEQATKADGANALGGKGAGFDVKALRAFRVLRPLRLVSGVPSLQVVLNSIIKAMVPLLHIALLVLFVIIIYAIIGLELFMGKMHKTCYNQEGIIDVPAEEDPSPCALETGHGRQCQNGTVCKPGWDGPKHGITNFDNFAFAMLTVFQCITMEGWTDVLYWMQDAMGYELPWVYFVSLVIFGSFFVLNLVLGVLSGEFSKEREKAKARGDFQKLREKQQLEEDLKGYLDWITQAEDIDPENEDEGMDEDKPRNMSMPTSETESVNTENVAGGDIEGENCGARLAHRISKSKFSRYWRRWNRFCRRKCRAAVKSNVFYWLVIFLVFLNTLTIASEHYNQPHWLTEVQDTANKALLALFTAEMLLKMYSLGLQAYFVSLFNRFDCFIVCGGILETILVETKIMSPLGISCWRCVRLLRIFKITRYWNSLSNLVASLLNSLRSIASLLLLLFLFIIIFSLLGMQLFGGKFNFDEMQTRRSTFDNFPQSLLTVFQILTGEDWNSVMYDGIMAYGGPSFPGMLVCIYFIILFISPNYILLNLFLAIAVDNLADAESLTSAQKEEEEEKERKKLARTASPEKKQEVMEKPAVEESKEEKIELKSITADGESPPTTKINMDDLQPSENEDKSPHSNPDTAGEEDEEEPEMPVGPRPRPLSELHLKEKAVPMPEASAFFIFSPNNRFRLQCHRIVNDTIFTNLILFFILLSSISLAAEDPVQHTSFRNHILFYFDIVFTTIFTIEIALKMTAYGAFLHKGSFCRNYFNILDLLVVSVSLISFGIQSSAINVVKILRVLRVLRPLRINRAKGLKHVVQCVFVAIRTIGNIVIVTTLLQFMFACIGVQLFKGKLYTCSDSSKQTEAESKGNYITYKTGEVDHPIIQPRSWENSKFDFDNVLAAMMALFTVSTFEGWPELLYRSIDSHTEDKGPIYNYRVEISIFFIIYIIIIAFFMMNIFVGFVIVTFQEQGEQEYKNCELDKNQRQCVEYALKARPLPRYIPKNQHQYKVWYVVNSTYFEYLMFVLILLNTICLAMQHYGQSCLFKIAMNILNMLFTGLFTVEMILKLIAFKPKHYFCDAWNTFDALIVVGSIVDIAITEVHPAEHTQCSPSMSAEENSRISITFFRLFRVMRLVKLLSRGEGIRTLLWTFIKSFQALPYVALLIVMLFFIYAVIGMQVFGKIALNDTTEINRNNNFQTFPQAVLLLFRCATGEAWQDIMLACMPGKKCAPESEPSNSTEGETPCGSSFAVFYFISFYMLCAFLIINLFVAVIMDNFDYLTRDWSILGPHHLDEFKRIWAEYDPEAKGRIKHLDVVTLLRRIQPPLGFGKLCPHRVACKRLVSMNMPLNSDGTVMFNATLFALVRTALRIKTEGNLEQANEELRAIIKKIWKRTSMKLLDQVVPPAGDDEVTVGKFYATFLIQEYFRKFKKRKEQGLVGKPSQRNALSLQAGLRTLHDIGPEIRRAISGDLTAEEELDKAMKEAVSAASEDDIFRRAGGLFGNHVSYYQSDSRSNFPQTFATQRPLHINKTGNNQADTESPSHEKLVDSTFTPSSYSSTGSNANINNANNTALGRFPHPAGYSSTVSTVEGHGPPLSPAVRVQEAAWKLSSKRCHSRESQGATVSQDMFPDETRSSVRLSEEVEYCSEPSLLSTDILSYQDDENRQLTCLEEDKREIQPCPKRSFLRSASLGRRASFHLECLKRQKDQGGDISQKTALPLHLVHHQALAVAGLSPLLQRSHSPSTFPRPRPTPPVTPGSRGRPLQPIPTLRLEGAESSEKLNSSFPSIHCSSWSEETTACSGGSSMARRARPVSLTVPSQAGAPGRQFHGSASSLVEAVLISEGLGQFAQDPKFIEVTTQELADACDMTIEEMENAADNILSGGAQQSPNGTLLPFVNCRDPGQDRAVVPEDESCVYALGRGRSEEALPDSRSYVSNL

[16] = PBK model plasma Cmax estimate (Gastroplus 9.8; levels L1, L2, L3); parameters: species or system human
[17] = human
rat = conditions: rat, cited from earlier work
[18] = per chemical see Peff Reference, cited from earlier work
human = conditions: 1 year human study; ref not given; cited from earlier work
[19] = target: Tyrosine-protein kinase Lck, LCK (h) (Homo sapiens, UniProt P06239); assay: IPP LCK enzymatic activity; type: biochemical; conditions: Enzymatic activity; control staurosporine; read-out: IPP Dose Response PoD: LCK
Sequence of Tyrosine-protein kinase Lck, LCK (h) (P06239 whole entry): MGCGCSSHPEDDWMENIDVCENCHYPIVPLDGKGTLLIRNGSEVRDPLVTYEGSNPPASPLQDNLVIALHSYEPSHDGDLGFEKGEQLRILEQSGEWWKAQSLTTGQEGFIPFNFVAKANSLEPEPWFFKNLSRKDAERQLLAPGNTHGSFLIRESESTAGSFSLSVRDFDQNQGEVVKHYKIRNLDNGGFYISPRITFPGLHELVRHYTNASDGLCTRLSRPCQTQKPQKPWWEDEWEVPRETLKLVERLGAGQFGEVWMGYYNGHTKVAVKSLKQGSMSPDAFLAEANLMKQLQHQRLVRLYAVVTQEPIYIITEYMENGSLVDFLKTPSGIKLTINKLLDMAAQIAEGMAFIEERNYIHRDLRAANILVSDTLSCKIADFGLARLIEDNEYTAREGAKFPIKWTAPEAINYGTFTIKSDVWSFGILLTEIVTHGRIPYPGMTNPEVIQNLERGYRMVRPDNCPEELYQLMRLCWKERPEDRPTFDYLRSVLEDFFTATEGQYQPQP

[20] = target: 5-hydroxytryptamine receptor 2B, HTR2B (h) (Homo sapiens, UniProt P41595)
Sequence of 5-hydroxytryptamine receptor 2B, HTR2B (h) (P41595 whole entry): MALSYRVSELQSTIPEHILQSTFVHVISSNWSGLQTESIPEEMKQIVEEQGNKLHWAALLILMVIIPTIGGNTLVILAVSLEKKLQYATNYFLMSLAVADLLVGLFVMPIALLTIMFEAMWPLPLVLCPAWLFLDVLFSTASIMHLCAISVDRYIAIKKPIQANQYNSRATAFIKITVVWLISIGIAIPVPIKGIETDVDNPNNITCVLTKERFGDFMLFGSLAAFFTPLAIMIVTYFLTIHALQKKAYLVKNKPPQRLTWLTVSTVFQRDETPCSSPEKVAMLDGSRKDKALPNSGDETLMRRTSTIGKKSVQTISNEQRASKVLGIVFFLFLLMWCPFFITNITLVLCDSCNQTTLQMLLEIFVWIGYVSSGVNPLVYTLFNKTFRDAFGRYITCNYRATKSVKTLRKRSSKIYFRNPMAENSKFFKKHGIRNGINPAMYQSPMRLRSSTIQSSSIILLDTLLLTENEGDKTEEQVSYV

[21] = 100 uM, * denotes assay interference (2-Amino-6-chloro-4-nitrophenol, HC Red 3)
[22] = IPP screening at 10 uM, control CGS 19755
[23] = 10 uM, ligand/control Colchicine

Structure (SMILES)	pod_httr_bifrost PoD (HepG2 cells [4]) [µM]	podl_path_minbmd PoD (HepG2 cells [4]) [µM]	pod_httr_bifrost PoD (HepaRG cells) [µM]	podl_path_minbmd PoD (HepaRG cells) [µM]	pod_httr_bifrost PoD (MCF7 cells) [µM]	podl_path_minbmd PoD (MCF7 cells) [µM]	IPP screening %, Coactivator recruitment [9, 21] [%]	Specific binding ([10]; IPP screening at 100 uM) [%]	pod_cell_stress PoD (HepG2 cells [13]) [µM]	Specific binding [1, 22] [%]	Specific binding [2] [%]	Specific binding ([5]; IPP screening at 10 uM) [%]	IPP screening %, Specific binding (Tubulin (r); [23]) [%]	IPP screening %, Coactivator recruitment ([9]; 10 uM) [%]	Specific binding ([10]; IPP screening at 10 uM) [%]	Specific binding [11] [%]	risk [17]	further results
CCN(CC)C(=O)c1cccc(C)c1 [DEET, N,N-Diethyl-3-methylbenzamide]	16.9912	582.029	24.7921	567.13	67.2542	670.53	0.0	20.5	29.817	–	–	–	–	–	–	–	–	Specific binding ([1]; IPP screening at 100 uM, control CGS 19755): 4.4%; Specific binding ([2]; IPP screening at 100 uM, control α-dendrotoxin): -4.9%; AC50 ([3]; lowest AC50 across IPP panel (systemic targets), cell_type -): 53.7 µM; Specific binding ([5]; IPP screening at 100 uM): 8.9%; IPP screening %, Specific binding (Tubulin (r); 100 uM, ligand/control Colchicine): -14.0%; IPP screening %, Coactivator recruitment [6, 21]: 2.0%; risk [7]: 0; IPP screening %, Specific binding ([8]; 100 uM, [3H] Dofetilide, control Terfenadine): -12.0%; Specific binding ([11]; IPP screening at 100 uM, control veratridine): 11.7%; NOAEL ([12]; 2-gen study, alpha-2-u nephropathy not relevant for humans, ref https://doi.org/10.1016/B978-0-12-374367-1.00098-7): Lowest human-relevant NOAEL was from a subchronic study. NOAEL of 25 mkd from 2-gen study appears to be based on alpha-2-u nephropathy which is not relevant for humans (https://doi.org/10.1016/B978-0-12-374367-1.001-7); PoD (NOAEL) ([12]; species '-', 364 days, ref ToxRefDB/Paul-Friedman et al. (2020)/regulatory opinions): 100 mg/kg bw/day; IPP screening %, Coactivator recruitment [14, 21]: 0.0%
C[C@H]1O[C@@H](O[C@H]2[C@@H](O)C[C@H](O[C@H]3[C@@H](O)C[C@H](O[C@H]4CC[C@@]5(C)[C@H](CC[C@@H]6[C@@H]5C[C@@H](O)[C@]5(C)[C@@H](C7=CC(=O)OC7)CC[C@]65O)C4)O[C@@H]3C)O[C@@H]2C)C[C@H](O)[C@@H]1O [Digoxin, 3beta-{[2,6-Dideoxy-beta-D-ribo-hexopyranosyl-(1->4)-2,6-dideoxy-beta-D-ribo-hexopyranosyl-(1->4)-2,6-dideoxy-beta-D-ribo-hexopyranosyl]oxy}-12beta,14-dihydroxy-5beta-card-20(22)-enolide]	0.007046	0.02695	0.01449	0.04151	0.003833	0.02134	–	–	0.0001773	-2.6	-2.7	11.3	-7.0	1.0	26.2	19.6	–	Specific binding [15]: 0.7%; IPP screening %, Specific binding ([8]; human): -6.2%; L2 Cmax estimate underprediction of the L3 plasma Cmax ([16]; largest of any underprediction, printed with ∼): 30- to 50 fold; underprediction of the L3 result at L2 (Cmax) ([16]; therapeutic uses): ≥ 5 fold
NS(=O)(=O)c1cc(C(=O)O)c(NCc2ccco2)cc1Cl [Furosemide, 4-Chloro-2-{[(furan-2-yl)methyl]amino}-5-sulfamoylbenzoic acid]	3.253	177.032	0.2929	1.613	72.7631	520.886	-1.0	15.2	2.832	–	–	–	–	–	–	–	1	Specific binding [1]: 5.8%; AC50 [3]: 1.38 µM; IPP screening %, Specific binding (Tubulin (r)): -4.0%; PoD (NOEL) (rat; chronic, ref NTP study): 46.9 mg/kg bw/day; Peff ([18]; PBK level L2, ref [3],[4],[11]): 0.41 cm/s x E-04; Peff ([18]; PBK level L3, ref [4],[11]): 0.41 cm/s x E-04
O=CCCCC=O [Glutaraldehyde, Pentanedial]	–	–	–	–	–	–	–	–	–	-4.1	–	-5.0	–	3.0	-3.4	–	0	Specific binding ([2]; IPP screening at 10 uM, control α-dendrotoxin): 5.2%; NOAEL (human): The lowest NOAEL from a rat repeat-dose study. Not there is also a 1 year human study with a NOAEL of 3 mkd.; IPP screening %, Coactivator recruitment ([6]; 10 uM): 2.0%; PoD (NOAEL) (rat; 7 days, ref ToxRefDB/Paul-Friedman et al. (2020)/regulatory opinions): 1 mg/kg bw/day; IPP screening %, Specific binding ([8]; 10 uM, [3H] Dofetilide, control Terfenadine): -1.1%; Specific binding ([11]; IPP screening at 10 uM, control veratridine): 13.2%; IPP screening %, Coactivator recruitment ([14]; 10 uM): -9.0%
COc1ccc(CCN(C)CCCC(C#N)(c2ccc(OC)c(OC)c2)C(C)C)cc1OC (stereo not shown) [Verapamil Hydrochloride, 2-(3,4-Dimethoxyphenyl)-5-{[2-(3,4-dimethoxyphenyl)ethyl](methyl)amino}-2-(propan-2-yl)pentanenitrile--hydrogen chloride (1/1)]	–	–	–	–	–	–	–	–	0.6383	2.5	4.7	-6.7	13.0	1.0	–	74.6	–	IC50 [19]: > 35.8 µM; leading IPP PoD (target) [20]: antagonism of the serotonin 2B receptor

From paper PMC11879040, “Advancing systemic toxicity risk assessment: Evaluation of a NAM-based toolbox approach” (Toxicological Sciences, 2024)
